According to patent US20180133221A1, “ADMINISTRATION OF UBIQUITIN-ACTIVATING ENZYME INHIBITOR AND CHEMOTHERAPEUTIC AGENTS” (Millennium Pharmaceuticals, Inc., priority 2014, published 2018):
Where two headings read alike, the source gives them in different places.

Assays:
[1] = tested on: PHTX-132Lu non-small cell lung xenograft
Excerpt: The PHTX-132Lu non-small cell lung xenograft model was established from a patient-derived tumor collected during surgery from a person with lung cancer (Poorly Differentiated Adenocarcinoma). PHTX-132Lu tumor fragments (approximately 2×2×3 mm^3) are implanted into the subcutaneous space in the right dorsal flank of female CB-17 SCID mice (age 10 weeks, Charles River Laboratory, Wilmington, Mass.) using a 13-gauge trocar. When the mean tumor volume reached approximately 220 mm^3, the animals were randomized into 12 treatment groups (n=5/group).
(§1) Carboplatin (Teva Pharmaceuticals) is formulated in 0.9% saline and administered by IP injection once weekly (QW) at 25, 50, 60, and 75 mg/kg. The once weekly schedule is also described as every 7 days (Q7D).
(§2) Compound 1 [((1R,2R,3S,4R)-2,3-dihydroxy-4-(2-(3-(trifluoromethylthio)-phenyl)pyrazolo[1,5-a]pyrimidin-7-ylamino)cyclopentyl)methyl sulfamate] is formulated in 10-20% HPbCD in sterile water and administered intravenously (IV) or subcutaneously (SC) on a BIW (twice/week schedule; Monday and Thursday or Tuesday and Friday) for either 2-4 weeks.
(§3) Tumors were measured twice weekly using vernier calipers. Tumor volumes were calculated using the standard formula V=W^2×L/2,). When mean tumor volumes reached approximately 200 mm^3 for PHTX-24C, 220 mm^3 for PHTX-Lu132, 150 mm^3 for CTG-0256, 260 mm^3 for CTG-0486, 185 mm^3 for PHTX-17C, 260 mm^3 for CTG-0165, 150 mm^3 for PHTX-14B in the study of Compound 1 and paclitaxel, 180 mm^3 for PHTX-14B in the study of Compound 1 and docetaxel, 200 mm^3 for SKOV-3, 220 mm^3 for PHTX-02B in the study of Compound 1 and docetaxel, 250 mm^3 for PHTX-02B in the study of Compound 1 and paclitaxel, 195 mm^3 for CTG-0159, 180 mm^3 for CTG-0012 or 150 mm^3 for Calu-6, mice were randomized into groups of n=5-7/arm as described in the tables below, and injected with vehicle, Compound 1 or agents (docetaxel, paclitaxel, oxaliplatin, cisplatin or carboplatin), or the combination of Compound 1 plus one of the agents, at various doses and schedules as described in tables below. Tumor size and body weight were measured approximately twice a week for the duration of the study. Mice are euthanized when their tumor volume reached 10% of their body weight, or when the average tumor volume of a treatment or control group reached approximately 2000 mm^3. Tumor growth continued to be monitored after the dosing period in some studies. Average tumor volume is reported as a function of time for selected arms of selected studies in the Figures.
(§4) Measurements from day 0 to day 14, day 19, day 21, or day 28 are analyzed as specified in Tables below. All tumor volumes have a value of 1 added to them before log10 transformation. For each animal, the log tumor volume at day 0 is subtracted from the log tumor volume on the subsequent days. This difference vs. time is used to calculate an area under the curve (AUC) for each animal using the trapezoid rule. […] The synergy score for the combination of agents A and B is defined as
(§5) 100*(mean(AUCAB)−mean(AUCA)−mean(AUCB)+mean(AUCctl))/mean(AUCctl):
(§6) where AUCAB, AUCA, AUCB, and AUCctl are the AUC values for animals in the combination group, the A group, the B group, and the control group, respectively. The standard error of the synergy score is computed based on the variation in the AUC values among the animals. […] If the P-value is above 0.05, then the combination is considered to be additive. If the P-value is below 0.05, and the synergy score is less than zero, then the combination is considered to be synergistic.

[2] = tested on: SKOV-3 ovarian cell-line derived xenograft; assay: SKOV-3 xenograft model, Compound 1 and carboplatin; assay type: in vivo, nude mice; settings: for Tumor Volume Day 14: in mm³ (unit assumed)
Procedure: SKOV-3 is an ovarian cell-line derived xenograft. Ten week old female nude mice (Taconic Farms, Inc) were inoculated subcutaneously in flank (cell suspension) with 4.0×10^6 SKOV-3 cells suspended in serum free DMEM+Matrigel. When the mean tumor volume reached approximately 200 mm^3, the animals were randomized into 12 treatment groups (n=5/group).
as §1, §2, §3, §4, §5, §6

[3] = tested on: CTG-0486 human ovarian xenograft; assay type: in vivo
Excerpt: The CTG-0486 model of human ovarian xenograft model was established from a patient-derived tumor collected during surgery from a person with ovarian cancer (serous adenocarcinoma, metastases to the small bowel). CTG-0486 tumor fragments (approximately 2×2×3 mm^3) are implanted into the subcutaneous space in the right dorsal flank of female Mus musculus/nu/nu mice (age 6-9 weeks, Harlan Laboratories, Madison, Wis., USA) using a 13-gauge trocar needle. When the mean tumor volume reached approximately 260 mm3, the animals were randomized into 8 treatment groups (n=5/group).
[…] The once weekly schedule is also described as every 7 days (Q7D).
as §2, §3, §4, §5, §6

[4] = tested on: CTG-0256 human ovarian xenograft; assay: CTG-0256 xenograft model, Compound 1 and carboplatin; assay type: in vivo, Mus musculus/nu/nu mice
Excerpt: The CTG-0256 model of human ovarian xenograft model was established from a patient-derived tumor collected during surgery at primary site from a person with ovarian cancer (serous adenocarcinoma with resistant response to carboplatin or paclitaxel). CTG-0256 tumor fragments (approximately 2×2×3 mm^3) were implanted into the subcutaneous space in the right dorsal flank of female Mus musculus/nu/nu mice (age 6-9 weeks, Harlan Laboratories, Madison, Wis.) using a 13-gauge trocar. When the mean tumor volume reached approximately 150 mm^3, the animals were randomized into 7 treatment groups (n=7/group).
as §1, §2, §3, §4, §5, §6

[5] = tested on: CTG-0165 human lung NSCLC xenograft; assay: CTG-0165 xenograft model, Compound 1 and cisplatin; assay type: in vivo, Mus musculus/nu/nu mice
Procedure: CTG-0165 tumor fragments (approximately 2×2×3 mm^3) were implanted into the subcutaneous space in the right dorsal flank of female Mus musculus/nu/nu mice (age 6-9 weeks, Harlan Laboratories, Madison, Wis., USA) using a 13-gauge trocar. When the mean tumor volume reached approximately 260 mm^3, the animals were randomized into 8 treatment groups (n=5/group).
Cisplatin (Teva Pharmaceuticals) is formulated in 0.9% saline and administered by IV injection once weekly (QW) at 7.5 mg/kg. The once weekly schedule is also described as every 7 days (Q7D).
as §2, §3, §4, §5, §6

[6] = tested on: Calu-6 non-small cell lung cancer xenograft; assay: Calu-6 xenograft model, Compound 1 and docetaxel; assay type: in vivo, nude mice; settings: for Tumor Volume Day 21: in mm³ (unit assumed)
Procedure: Calu-6 is a non-small cell lung cancer cell-lined derived xenograft model. Nine week old female nude mice (Taconic Farms, Inc) were inoculated subcutaneously in the flank (cell suspension) with 4.0×10^6 Calu-6 cells suspended in serum free MEM. […] Docetaxel (Henry Schein, Inc., Pittsburgh Pa.) is formulated in 0.9% saline and administered by intravenous injection (IV) once weekly (QW) at 5 mg/kg or 10 mg/kg. […] Tumors were measured twice weekly using vernier calipers.

[7] = tested on: PHTX-14B breast xenograft; assay: PHTX-14B xenograft model, Compound 1 and docetaxel; assay type: in vivo, nude mice; settings: for Tumor Volume Day 28: in mm³ (unit assumed)
Procedure: (§7) Docetaxel (Henry Schein, Inc., Pittsburgh Pa.) is formulated in 0.9% saline and administered by intravenous injection (IV) once weekly (QW) at 5 mg/kg or 10 mg/kg. […] Tumors were measured twice weekly using vernier calipers.

[8] = tested on: PHTX-02B breast xenograft; assay: PHTX-02B xenograft model, Compound 1 and docetaxel; assay type: in vivo, SCID-NOD mice; settings: for Tumor Volume Day 21: in mm³ (unit assumed)
Procedure: as §7

[9] = tested on: CTG-0159 human lung NSCLC xenograft; assay: CTG-0159 xenograft model, Compound 1 and docetaxel; assay type: in vivo, Mus musculus/nu/nu mice; settings: 10 mg/kg docetaxel QWx3 IV; in mm³ (unit assumed)
Procedure: as §7

[10] = tested on: PHTX-24C colon xenograft; assay: PHTX-24C xenograft model, Compound 1 and oxaliplatin; assay type: in vivo, CB-17 SCID mice
Procedure: (§8) Oxaliplatin (Jiang Su Geng Rui Pharmaceuticals, Inc.) is formulated in 0.9% saline and administered by IP injection once weekly (QW) at 7.5 or 12.5 mg/kg. The once weekly schedule is also described as every 7 days (Q7D).
as §2, §3, §4, §5
where AUCAB, AUCA, AUCB, and AUCctl are the AUC values for animals in the combination group, the A group, the B group, and the control group, respectively. […]

[11] = tested on: PHTX-17C colorectal carcinoma xenograft; assay type: in vivo; settings: for Tumor Volume Day 21: in mm³ (unit assumed)
Excerpt: The PHTX-17C colorectal carcinoma xenograft model was established from a patient-derived tumor collected during surgery from a person with moderately differentiated adenocarcinoma.PHTX-17C tumor fragments (approximately 2×2×3 mm^3) were implanted into the subcutaneous space in the right dorsal flank of female nude mice (age 5-7 weeks, Balb/c Nude Mice, Shanghai SINO-British SIPPR/BK Lab Animal Ltd, Shanghai, China) using a 13-gauge trocar. When the mean tumor volume reached approximately 185 mm^3, the animals were randomized into 12 treatment groups (n=5/group).
as §8, §2, §3, §4, §5, §6

[12] = tested on: PHTX-14B breast xenograft; assay: PHTX-14B xenograft model, Compound 1 and paclitaxel; assay type: in vivo, Balb/c Nude Mice; settings: for Tumor Volume Day 28: in mm³ (unit assumed)
Procedure: (§9) Paclitaxel (Bristol-Myers Squibb Company) is formulated in 0.9% saline and administered by intravenous injection (IV) on every 4 days (Q4D) or once weekly (QW) at 10 and 20 mg/kg. […] Tumors were measured twice weekly using vernier calipers.

[13] = tested on: CTG-0012 human primary triple negative breast cancer model; assay: CTG-0012 xenograft model, Compound 1 and paclitaxel; assay type: in vivo, Mus musculus/nu/nu mice
Procedure: as §9

[14] = tested on: PHTX-02B breast xenograft; assay: PHTX-02B xenograft model, Compound 1 and paclitaxel; assay type: in vivo, SCID-NOD mice; settings: for Tumor Volume Day 19: in mm³ (unit assumed)
Procedure: as §9

[15] = single agent docetaxel 5 and 10 mg/kg IV QW
[16] = single agent paclitaxel IV at 10 mg/kg Q4D for 3 weeks

N.N.O=C([O-])C1(C(=O)[O-])CCC1.[Pt+2] [carboplatin, reference compound]
Tumor Volume Day 21 ([1]; 25 mg/kg carboplatin Q7Dx3 IP, in mm³ (unit assumed)): 727 | tolerability ([1]; 75 mg/kg carboplatin Q7D×3 as single agent (study group 2)): not tolerated | anti-tumor activity compared to vehicle control ([1]; single agent carboplatin 25 mg/kg IP Q7D): modest anti-tumor activity | Tumor Volume Day 14 ([2]; 25 mg/kg carboplatin Q7Dx2 IP): 932.8 | Tumor Volume Day 14 ([2]; 75 mg/kg carboplatin Q7Dx2 IP): 798.5 | anti-tumor activity compared to vehicle control ([2]; single agent carboplatin 25 and 75 mg/kg IP Q7D): modest anti-tumor activity | Tumor Volume Day 21 ([3]; 60 mg/kg carboplatin Q7Dx3 IV, in mm³ (unit assumed)): 400.6 | anti-tumor activity compared to vehicle control ([3]; single agent carboplatin IP at 60 mg/kg Q7D for 3 weeks): modest to strong anti-tumor activity | Volume Tumor Day 14 ([4]; 50 mg/kg carboplatin Q7Dx2 IP, in mm³ (unit assumed)): 1898.1 | anti-tumor activity compared to vehicle control ([4]; single agent carboplatin IP at 50 mg/kg Q7D): modest to weak anti-tumor activity

N.N.[Cl][Pt][Cl] [cisplatin, reference compound]
Tumor Volume Day 21 ([5]; 7.5 mg/kg cisplatin QWx3 IV, in mm³ (unit assumed)): 489.3 | anti-tumor activity compared to vehicle control ([5]; single agent cisplatin 7.5 mg/kg Q7D): modest to weak anti-tumor activity

CC(=O)O[C@@]12CO[C@@H]1C[C@H](O)[C@@]1(C)C(=O)[C@H](O)C3=C(C)[C@@H](OC(=O)[C@H](O)[C@@H](NC(=O)OC(C)(C)C)c4ccccc4)C[C@@](O)([C@@H](OC(=O)c4ccccc4)[C@H]21)C3(C)C [docetaxel, reference compound]
Tumor Volume Day 21 ([6]; 5 mg/kg docetaxel Q7Dx3 IV): 743.7 | Tumor Volume Day 21 ([6]; 10 mg/kg docetaxel Q7Dx3 IV): 882.6 | anti-tumor responses compared to the vehicle control [6, 15]: modest anti-tumor responses | Tumor Volume Day 28 ([7]; 5 mg/kg docetaxel Q7Dx3 IV): 590.4 | Tumor Volume Day 28 ([7]; 10 mg/kg docetaxel Q7Dx3 IV): 195.5 | tumor growth compared to the vehicle control group [7, 15]: inhibited tumor growth | Tumor Volume Day 21 ([8]; 5 mg/kg docetaxel Q7Dx3 IV): 492.3 | Tumor Volume Day 21 ([8]; 10 mg/kg docetaxel Q7Dx3 IV): 232.2 | tumor growth compared to the vehicle control group [8, 15]: inhibited tumor growth | Tumor Volume Day 21 [9]: 103.2

O=C1[O][Pt]2([NH][C@@H]3CCCC[C@H]3[NH]2)[O]C1=O [oxaliplatin, reference compound]
Tumor Volume Day 21 ([10]; 7.5 mg/kg oxaliplatin Q7Dx2 IP, in mm³ (unit assumed)): 720.6 | anti-tumor activity compared to vehicle control ([10]; single agent oxaliplatin 7.5 mg/kg IP Q7D): modest anti-tumor activity | Tumor Volume Day 21 ([11]; 7.5 mg/kg oxaliplatin Q7Dx3 IP): 2017.5 | Tumor Volume Day 21 ([11]; 12.5 mg/kg oxaliplatin Q7Dx3 IP): 1758.9 | anti-tumor activity compared to vehicle control ([11]; single agent oxaliplatin IP at 7.5 or 12.5 mg/kg Q7D): modest anti-tumor activity

CC(=O)O[C@H]1C(=O)[C@@]2(C)[C@H]([C@H](OC(=O)c3ccccc3)[C@]3(O)C[C@H](OC(=O)[C@H](O)[C@@H](NC(=O)c4ccccc4)c4ccccc4)C(C)=C1C3(C)C)[C@]1(OC(C)=O)CO[C@@H]1C[C@@H]2O [paclitaxel, reference compound]
Tumor Volume Day 28 ([12]; 10 mg/kg paclitaxel Q7Dx4 IV): 584.4 | Tumor Volume Day 28 ([12]; 20 mg/kg paclitaxel Q7Dx4 IV): 283.6 | anti-tumor activity ([12]; paclitaxel 20 mg/kg IV Q7D for 4 weeks): strong anti-tumor activity | anti-tumor activity compared to vehicle control ([12]; single agent paclitaxel 10 mg/kg IV Q7D for 4 weeks): modest anti-tumor activity | Tumor Volume Day 21 ([13]; 10 mg/kg paclitaxel Q4Dx3 IV, in mm³ (unit assumed)): 731.1 | anti-tumor activity compared to vehicle control [13, 16]: modest to strong anti-tumor activity | Tumor Volume Day 19 ([14]; 10 mg/kg paclitaxel Q4Dx3 IV): 1093.5 | Tumor Volume Day 19 ([14]; 20 mg/kg paclitaxel Q4Dx3 IV): 245.2 | anti-tumor activity ([14]; paclitaxel IV at 20 mg/kg Q4D for 3 weeks): strong anti-tumor activity | anti-tumor activity compared to vehicle control [14, 16]: minimal to modest anti-tumor activity
